Starred links: 1 amine or outer side, 2 acyl side, 3 side chain; linkers in the order of their positions; H or OH if unused. Non-standard residues stand in square brackets, D forms with d. Residues, ends and D or L forms follow the SMILES beside them. Groups on a side chain read outwards from the residue. *: point of attachment. C18 diacid = O=C(O)CCCCCCCCCCCCCCCCC(=O)*; γGlu = O=C(O)[C@H](CCC(=O)[*:2])N[*:1]; AEEA = NCCOCCOCC(=O)O; Aib = CC(C)(N)C(=O)O
Experiment: Effect on blood pressure, telemetry (Example 17)
Assay type: in vivo
Details: Sprague Dawley rats, 0.1 mg/kg SC
Experimental: The effect of the compounds on blood pressure was determined in telemetry studies in Sprague Dawley rats at a dosage of 0.1 mg/kg SC.
The rats were previously implanted with a telemetry device (DSI, Saint-Paul, USA, HD-S10, HD-S11 or HD S21) and allowed to recover for a minimum period of 2 weeks before treatment with vehicle or the different peptides. Blood pressure (BP) was recorded through a catheter inserted into the abdominal aorta. The device body was placed in the abdomen. At the end of surgery, animals were placed in individual cages until the end of the study.
Pressure signals were recorded for one hour before the treatment (basal period). Thereafter, the subcutaneous administration of the test compound or its vehicle was performed, under continuous recording of the signal over a 48-hour period. Data acquisition was performed using Hem 4.3 acquisition software (Notocord®, Le Pecq, France) connected to the telemetry device. Hemodynamic parameters were recorded during a […] before treatment and every 4-hour period following subcutaneous administration over 48 hours.
Investigated parameters (calculated from BP signal) were Heart Rate (HR) in beats per minute (bpm), Diastolic and Systolic Blood Pressure (DBP) in mmHg, and Mean Blood Pressure (MBP) in mmHg.
Data from Hem were manipulated using Microsoft Excel®. For each parameter, a basal value was determined as the average calculated over a 1-hour period during the pre-treatment sequence, and the values post treatment were calculated over 4-hour periods ([0-4], [4-8], [8-12], [12-16], [16-20], [20-24], [24-28], [32-36], [36-40], [40-44] and [44-48] hours) covering the 48-hour period following administration.
Representative data are presented in Table 15 below, in which “n” represents the number of animals for which individual values were obtained and “Duration” indicates the last time point for which a significant effect on BP was still seen: Table 15

Row | SMILES | Duration (h): last time point for which a significant effect on BP was still seen [h] | Effect on Systolic Pressure % change from baseline 8 h [%] | Effect on Systolic Pressure % change from baseline 24 h [%]
1 | CC[C@H](C)[C@H](N)C(=O)N[C@H](C(=O)N[C@@H](CC(C)C)C(=O)N[C@@H](CO)C(=O)N[C@@H](CC(C)C)C(=O)N[C@@H](CC(=O)O)C(=O)N[C@@H](C(=O)N1CCC[C@H]1C(=O)N[C@H](C(=O)N[C@@H](CCCCN)C(=O)N[C@@H](CC(C)C)C(=O)N[C@@H](CCCCNC(=O)COCCOCCNC(=O)COCCOCCNC(=O)CC[C@H](NC(=O)CCCCCCCCCCCCCCCCC(=O)O)C(=O)O)C(=O)N[C@@H](CCC(N)=O)C(=O)N[C@H](C(=O)N[C@@H](CC(C)C)C(=O)N[C@@H](CC(C)C)C(=O)N[C@@H](CCCCN)C(=O)N[C@@H](CCC(N)=O)C(=O)N[C@@H](CCC(=O)O)C(=O)N[C@@H](CCCNC(=N)N)C(=O)N[C@@H](CCC(N)=O)C(=O)N[C@@H](CCCCN)C(=O)NC(C)(C)C(=O)N[C@@H](CCC(N)=O)C(=O)N[C@@H](CCCNC(=N)N)C(=O)N[C@@H](CCC(=O)O)C(=O)N[C@@H](CCC(N)=O)C(=O)N[C@@H](C)C(=O)N[C@@H](CCC(=O)O)C(=O)N[C@@H](CCCCN)C(=O)N[C@@H](CC(N)=O)C(=O)N[C@@H](CCCCN)C(=O)N[C@@H](CCC(N)=O)C(=O)N[C@H](C(=O)N[C@@H](CC(C)C)C(=O)N[C@@H](C)C(=O)N[C@@H](CCC(N)=O)C(=O)N[C@H](C(N)=O)C(C)C)[C@@H](C)CC)[C@@H](C)CC)[C@@H](C)CC)C(C)C)C(C)C [SEQ ID NO: 130, IVLSLDvPIKLK*QILLKQERQKAibQREQAEKNKQILAQV-NH2] (H-IVLSLD[dV]PIKLK([AEEA-AEEA-γGlu-C18 diacid])QILLKQERQK[Aib]QREQAEKNKQILAQV-NH2) | 30 | −15.2 | −9.9
2 | CC[C@H](C)[C@H](N)C(=O)N[C@H](C(=O)N[C@@H](CC(C)C)C(=O)N[C@@H](CO)C(=O)N[C@@H](CC(C)C)C(=O)N[C@@H](CC(=O)O)C(=O)N[C@@H](C(=O)N1CCC[C@H]1C(=O)N[C@H](C(=O)N[C@@H](CCCCN)C(=O)N[C@@H](CC(C)C)C(=O)N[C@@H](CCCCNC(=O)COCCOCCNC(=O)COCCOCCNC(=O)CC[C@H](NC(=O)CCCCCCCCCCCCCCCCC(=O)O)C(=O)O)C(=O)N[C@@H](CCC(N)=O)C(=O)N[C@H](C(=O)N[C@@H](CC(C)C)C(=O)N[C@@H](CC(C)C)C(=O)N[C@@H](CCCCN)C(=O)N[C@@H](CCC(N)=O)C(=O)N[C@@H](CCC(=O)O)C(=O)N[C@@H](CCCNC(=N)N)C(=O)N[C@@H](CCC(N)=O)C(=O)N[C@@H](CCCCN)C(=O)NC(C)(C)C(=O)N[C@@H](CCC(N)=O)C(=O)N[C@@H](CCCNC(=N)N)C(=O)N[C@@H](CCC(N)=O)C(=O)N[C@@H](CCC(N)=O)C(=O)N[C@@H](C)C(=O)N[C@@H](CCC(=O)O)C(=O)N[C@@H](CCCCN)C(=O)N[C@@H](CC(N)=O)C(=O)N[C@@H](CCCCN)C(=O)N[C@@H](CCC(N)=O)C(=O)N[C@H](C(=O)N[C@@H](CC(C)C)C(=O)N[C@@H](C)C(=O)N[C@@H](CCC(N)=O)C(=O)N[C@H](C(N)=O)C(C)C)[C@@H](C)CC)[C@@H](C)CC)[C@@H](C)CC)C(C)C)C(C)C [SEQ ID NO: 135, IVLSLDvPIKLK*QILLKQERQKAibQRQQAEKNKQILAQV-NH2] (H-IVLSLD[dV]PIKLK([AEEA-AEEA-γGlu-C18 diacid])QILLKQERQK[Aib]QRQQAEKNKQILAQV-NH2) | 30 | −8.8 | −4.8

Reference: patent publication US12679878B2, “CRF2 receptor agonists and their use in therapy” (SANOFI, priority 2020, dated 2026)
